Reference: patent US10426850B2, “Collagen mimetic peptides for targeting collagen strands for in vitro and in vivo imaging and therapeutic use” (The Johns Hopkins University, priority 2011, dated 2019)

Key:
[1] = tested on: collagen types I, II and IV; experiment: SDS-PAGE staining by heat activated fluorescent CMP, collagen types; assay type: binding, rat (I), bovine (II), mouse (IV); conditions: 6 μM, 2 μg protein per lane
Text: Acid soluble rat-tail type I collagen, bovine type II collagen, and mouse type IV collagen were purchased from BD Bioscience (San Jose, Calif.). Complement component C1q from human serum, fibronectin from bovine plasma, and laminin from Engelbreth-Holm-Swarm murine sarcoma basement membrane were purchased from Sigma-Aldrich. ProMMP-1, and p-aminophenylmercuric acetate were acquired from EMD millipore. Human umbilical vein endothelial cells (HUVECs) and EGM-2 cell growth media were obtained from Lonza (Walkersville, Md.). Precast NuPAGE® Novex 4-12% Bis-Tris Gel (1.0 mm, 12 well), Novex® Sharp unstained protein standard, and SDS-PAGE running buffer, sample buffer, and other SDS-PAGE reagents were purchased from Life Technologies.
SDS-PAGE staining and imaging. Proteins were resolved on NuPAGE® Novex 4-12% bis-tris gels under denaturating conditions using an XCell SureLock™ Mini-Cell electrophoresis system (Life Technologies). NuPAGE® MOPS SDS running buffer containing 50 mM MOPS, 50 mM Tris Base, 0.1% SDS, and 1 mM EDTA (pH 7.7) was used. Protein samples were heated to 85° C. in NuPAGE® LDS sample denaturing buffer for 10 min before the gel loading. Unless specified otherwise, 2 μg of protein was used for each lane. The gels were run at 200 V for 50-60 min. Reducing conditions were used only for gels carrying type IV collagen, HUVECs lysate, and C1q, for which NuPAGE® reducing agent was mixed with the protein samples, and 500 μL of NuPAGE® antioxidant was added to the cathode buffer before loading. After electrophoresis, the gels were washed by deionized water briefly three times to remove the remaining SDS. […] The fluorescence intensities of the protein bands were quantified using GE ImageQuant™ TL software. After fluorescence imaging, all gels were further stained with coomassie brilliant blue (CB) G-250 (Bio-Rad) for 2-3 hr followed by washing, and imaging under white light illumination using a Gel Doc EQ system (BioRad).

[2] = tested on: collagens in fixed tissue sections (skin, cornea, bone); experiment: Immunohistochemistry of fixed tissue sections with UV-activated caged CMP; design: species or system mouse; conditions: UV-activated on tissue
Text: For immunohistochemical staining, anti-collagen I antibody was purchased from Abcam (ab292, Cambridge, Mass.); bovine serum albumin (BSA), goat serum, and Triton X-100 were purchased from Sigma-Aldrich; DAPI was obtained from Roche Applied Science (Indianapolis, Ind.); Alexa Fluor® 594 F(ab′)2 fragment of goat anti-rabbit IgG and Prolong® Gold antifade reagent were purchased from Life Technologies. The skin and cornea tissues were harvested from a 23 month-old wild-type C57BL/6 mouse. The tissues were fixed with 4% paraformaldehyde in PBS solution (pH 7.4) for 1 hour and cryopreserved in Tissue-Tek O.C.T. medium (Sakura Finetek, Torrance, Calif.). Cryosections of 8 μm thickness were obtained and mounted onto charged glass slides. Paraffin embedded mouse bone sections were a kind gift from Dr. Catherine Foss and Dr. Collin Torok at Johns Hopkins University School of Medicine. The leg containing the tibia bone was harvested from a 12-week-old female athymic nu/nu mouse. The muscle tissues were manually trimmed, and the bone was fixed in 10% neutral-buffered formalin at room temperature overnight. The bone was demineralized in Decal Stat solution (Decal Chemical, Suffern, N.Y.) for 3 hr at room temperature, embedded in paraffin and sectioned to 4 μm at Tissue Microarray Facility of Johns Hopkins University. The formalin-fixed normal and fibrotic rat livers were a kind gift from Jie Yan and Yuzhan Kang at National University of Singapore. The tissues were sectioned to 10 μm thickness on glass slides and stained by Masson trichrome by the Reference Histology Laboratory, Johns Hopkins Medical Institutions.
Immunohistochemistry. Frozen fixed tissue slides were allowed to equilibrate to room temperature and dried under air flow. The tissue sections were permeabilized by cold methanol at −20° C. for 10 min, and incubated in 1×PBS solution. The paraffin embedded bone sections were de-paraffinized by two cycles of 5 min xylene wash, two cycles of 5 min 100% ethanol wash, and two cycles of 5 min 95% ethanol wash followed by soaking in 1×PBS solutions. […]

CF-GGG-(GPO)9 [CF(GPO)9]
staining of collagen bands [1]: binds to collagen types I, II and IV | staining of fixed mouse skin and cornea sections [2]: effectively stained | staining of demineralized, fixed, paraffin embedded mouse tibia bone sections ([2]; data not shown): strong

CF-GGG-PGOGPGPOPOGOGOPPGOOPGGOOPPG [CF^SG9P9O9, reference compound]
staining of collagen bands [1]: virtually no binding affinity to the collagen bands | staining of collagen bands ([1]; listed as CFSG9P9O9): revealed no collagen bands | staining of fixed mouse skin and cornea sections [2]: no discernible binding
